Tests used:
Assay type in all cases: physicochemical
Solubility in water = assay: Solubility in water
Excerpt: (§1) Thus, the ability to produce a shelf-stable parenteral formulation is unexpected.

[1] = Stability in 100% propylene glycol (PG) solution; details: 50° C., in the dark, after 4 weeks
Excerpt: as §1

[2] = Stability in 100% polyethylene glycol (PEG) 400 solution; details: 100% PEG 400, 50° C., in the dark, after 4 weeks
Excerpt: as §1

Compound: Cc1ccc(Nc2c(F)cccc2Cl)c(CC(=O)O)c1 [5-methyl-2-(2′-chloro-6′-fluoroanilino)phenylacetic acid]
- solubility in water (Solubility in water): relatively insoluble

Compound: Cc1ccc(Nc2c(F)cccc2Cl)c(CC(=O)[O-])c1.[K+] [Potassium salt of 5-methyl-2-(2′-chloro-6′-fluoroanilino)phenylacetic acid]
- degradation in a solution of 100% PG [1]: 7%
- degradation in a solution of 100% PEG 400 [2]: 5%
